# Test results as given in patent publication US20240182513A1, “SEPARATION OF METAL IONS FROM A SAMPLE USING GLYCOLIPIDS” (ARIZONA BOARD OF REGENTS ON BEHALF OF THE UNIVERSITY OF …, priority 2021, published 2024).
# Experiments:
# [1] = Example 2.1 rhamnolipid precipitation, filtration, centrifugation: lead; conditions: for Treatment 2: Rhamnolipid and Filtration Cf / Treatment 3: Rhamnolipid and Centrifugation Cc / Treatment 1: Rhamnolipid Only Cr: lead concentration after treatment; for Treatment 1: Rhamnolipid Only (Rr) efficiency of removal / Treatment 2: Rhamnolipid and Filtration (Rf) efficiency of removal / Treatment 3: Rhamnolipid and Centrifugation (Rc) efficiency of removal: lead
# Experimental: (§1) Structural variants of synthetic glycolipids were used to show the effect of the number and length of the hydrophobic tail(s) on rhamnolipid as a chemical precipitant. […] Solutions (10 mM) were made using nanopure water (≥18 MΩ-cm) then adjusted to a pH of 6.9±0.05 with HNO3 and NaOH. These solutions were made in advance and stored in the cold room for up to one month. They were brought to room temperature before each experiment.
# (§2) Three metals were tested for binding with rhamnolipid. Lead as […] (Fisher Scientific, Waltham, MA, 99% purity), was chosen to represent a metal with high rhamnolipid-metal conditional stability constant; lanthanum as La(NO3)3 6(H2O) (Sigma-Aldrich, St. Louis, MO, 99.99% purity) was chosen as a representative REE; and magnesium as Mg(NO3)2 6(H2O) (Sigma-Aldrich, St. Louis, MO, 99% purity) was chosen to represent a metal with a low rhamnolipid-metal conditional stability constant (Hogan et al., 2017). Metal solutions (5 mM) were made using nanopure water (≥18 MΩ-cm) in 20 ml glass scintillation vials. All solutions were used within 15 min to ensure minimal adsorption to the glass vial.
# (§3) Three glycolipid-based treatments were evaluated to remove metal from solution: (1) the addition of glycolipid with no further treatment (gravitational precipitation), (2) the addition of a glycolipid followed by filtration or (3) the addition of a glycolipid followed by centrifugation. Each metal (Pb, La, and Mg) was evaluated separately with each of the glycolipid structures. For each experiment, a metal solution was mixed with a glycolipid solution in a 1.7 ml reaction tube at varying molar ratios of glycolipid to metal: 0:1 (glycolipid-free control), 2:1, 5:1, and 10:1. The reactions were mixed in the order of nanopure water (≥18 MΩ-cm), glycolipid solution (10 mM), then metal solution (5 mM). The metal and glycolipid solutions were continuously stirred as they were aliquoted into the reaction tubes. The experiment was performed in triplicate.
# (§4) The reaction tubes were mixed overnight (16 to 24 h) and then three samples were collected from each tube to measure the effect of each of the three treatments: a glycolipid only treatment sample, a filtration treatment sample, and a centrifugation treatment sample. Briefly, for the glycolipid only treatment samples all tubes were vortexed for approximately 5 sec immediately before removing 0.1 ml into a dilution tube of 2% trace metal grade nitric acid (12 to 14 ml) to minimize the settling of particles. For the filtration samples each reaction tube was vortexed for 5 sec and then a 0.6 ml aliquot was collected with a 1 ml syringe. A GHP acrodisc disk filter (hydrophilic polypropylene membrane, 0.45 μm pore size, 25 mm disc diameter) from Pall Life Sciences (Port Washington, New York) was then placed onto the end of the syringe and the solution was pushed through the filter. The void space in the disk filter holds approximately 0.5 ml, therefore around 0.1 ml of filtrate was collected into a dilution tube. For the centrifugation sample, the remaining solution was centrifuged at 10,000 RCF for 15 min. Approximately 0.1 ml of the supernatant was aliquoted into a dilution tube. Following collection, all samples were taken for metal analysis using ICP-MS.
# [2] = Example 2.1 rhamnolipid precipitation, filtration, centrifugation: magnesium; conditions: for Treatment 2: Rhamnolipid and Filtration Cf / Treatment 3: Rhamnolipid and Centrifugation Cc / Treatment 1: Rhamnolipid Only Cr: magnesium concentration after treatment; for Treatment 1: Rhamnolipid Only (Rr) efficiency of removal / Treatment 2: Rhamnolipid and Filtration (Rf) efficiency of removal / Treatment 3: Rhamnolipid and Centrifugation (Rc) efficiency of removal: magnesium
# Experimental: as §1, §2, §3, §4
# [3] = Example 2.1 rhamnolipid precipitation, filtration, centrifugation: lanthanum; conditions: for Treatment 2: Rhamnolipid and Filtration Cf / Treatment 3: Rhamnolipid and Centrifugation Cc / Treatment 1: Rhamnolipid Only Cr: lanthanum concentration after treatment; for Treatment 1: Rhamnolipid Only (Rr) efficiency of removal / Treatment 2: Rhamnolipid and Filtration (Rf) efficiency of removal / Treatment 3: Rhamnolipid and Centrifugation (Rc) efficiency of removal: lanthanum
# Experimental: as §1, §2, §3, §4
structure (smiles),measurement,setting,value
CCCCCCCCCCCCCCCC(CC(=O)O)OC1O[C@@H](C)[C@H](O)[C@@H](O)[C@H]1O (stereo partly shown) [Rha C18],Treatment 2: Rhamnolipid and Filtration Cf,[1]; molar ratio 2 to 1,0.027 ± 0.001 mmol/L
same,Treatment 3: Rhamnolipid and Centrifugation Cc,[1]; molar ratio 2 to 1,0.132 ± 0.001 mmol/L
same,Treatment 1: Rhamnolipid Only Cr,[1]; molar ratio 5 to 1,0.044 ± 0.008 mmol/L
same,Treatment 2: Rhamnolipid and Filtration Cf,[1]; molar ratio 5 to 1,0.000 ± 0.002 mmol/L
same,Treatment 3: Rhamnolipid and Centrifugation Cc,[1]; molar ratio 5 to 1,0.005 ± 0.002 mmol/L
same,Treatment 1: Rhamnolipid Only Cr,[1]; molar ratio 10 to 1,0.255 ± 0.015 mmol/L
same,Treatment 2: Rhamnolipid and Filtration Cf,[1]; molar ratio 10 to 1,0.000 ± 0.001 mmol/L
same,Treatment 3: Rhamnolipid and Centrifugation Cc,[1]; molar ratio 10 to 1,0.014 ± 0.001 mmol/L
same,Treatment 1: Rhamnolipid Only Cr,[1]; molar ratio rhamnolipid:lead 2 to 1,0.123 ± 0.002 mmol/L
same,Treatment 1: Rhamnolipid Only (Rr) efficiency of removal,[1]; molar ratio 2 to 1,(54.8%)
same,Treatment 2: Rhamnolipid and Filtration (Rf) efficiency of removal,[1]; molar ratio 2 to 1,(90.1%)
same,Treatment 3: Rhamnolipid and Centrifugation (Rc) efficiency of removal,[1]; molar ratio 2 to 1,(51.6%)
same,Treatment 1: Rhamnolipid Only (Rr) efficiency of removal,[1]; molar ratio 5 to 1,(83.9%)
same,Treatment 2: Rhamnolipid and Filtration (Rf) efficiency of removal,[1]; molar ratio 5 to 1,(99.9%)
same,Treatment 3: Rhamnolipid and Centrifugation (Rc) efficiency of removal,[1]; molar ratio 5 to 1,(98.1%)
same,Treatment 1: Rhamnolipid Only (Rr) efficiency of removal,[1]; molar ratio 10 to 1,(6.2%)
same,Treatment 2: Rhamnolipid and Filtration (Rf) efficiency of removal,[1]; molar ratio 10 to 1,(99.9%)
same,Treatment 3: Rhamnolipid and Centrifugation (Rc) efficiency of removal,[1]; molar ratio 10 to 1,(94.7%)
same,Treatment 2: Rhamnolipid and Filtration Cf,[2]; molar ratio 2 to 1,0.169 ± 0.015 mmol/L
same,Treatment 3: Rhamnolipid and Centrifugation Cc,[2]; molar ratio 2 to 1,0.216 ± 0.002 mmol/L
same,Treatment 1: Rhamnolipid Only Cr,[2]; molar ratio 5 to 1,0.215 ± 0.002 mmol/L
same,Treatment 2: Rhamnolipid and Filtration Cf,[2]; molar ratio 5 to 1,0.056 ± 0.012 mmol/L
same,Treatment 3: Rhamnolipid and Centrifugation Cc,[2]; molar ratio 5 to 1,0.141 ± 0.001 mmol/L
same,Treatment 1: Rhamnolipid Only Cr,[2]; molar ratio 10 to 1,0.304 ± 0.001 mmol/L
same,Treatment 2: Rhamnolipid and Filtration Cf,[2]; molar ratio 10 to 1,0.017 ± 0.002 mmol/L
same,Treatment 3: Rhamnolipid and Centrifugation Cc,[2]; molar ratio 10 to 1,0.107 ± 0.004 mmol/L
same,Treatment 1: Rhamnolipid Only Cr,[2]; molar ratio rhamnolipid:magnesium 2 to 1,0.265 ± 0.002 mmol/L
same,Treatment 1: Rhamnolipid Only (Rr) efficiency of removal,[2]; molar ratio 2 to 1,(12.1%)
same,Treatment 2: Rhamnolipid and Filtration (Rf) efficiency of removal,[2]; molar ratio 2 to 1,(37.0%)
same,Treatment 3: Rhamnolipid and Centrifugation (Rc) efficiency of removal,[2]; molar ratio 2 to 1,(20.5%)
same,Treatment 1: Rhamnolipid Only (Rr) efficiency of removal,[2]; molar ratio 5 to 1,(19.5%)
same,Treatment 2: Rhamnolipid and Filtration (Rf) efficiency of removal,[2]; molar ratio 5 to 1,(79.0%)
same,Treatment 3: Rhamnolipid and Centrifugation (Rc) efficiency of removal,[2]; molar ratio 5 to 1,(47.4%)
same,Treatment 2: Rhamnolipid and Filtration (Rf) efficiency of removal,[2]; molar ratio 10 to 1,(93.7%)
same,Treatment 3: Rhamnolipid and Centrifugation (Rc) efficiency of removal,[2]; molar ratio 10 to 1,(60.1%)
same,Treatment 2: Rhamnolipid and Filtration Cf,[3]; molar ratio 2 to 1,0.116 ± 0.029 mmol/L
same,Treatment 3: Rhamnolipid and Centrifugation Cc,[3]; molar ratio 2 to 1,0.228 ± 0.013 mmol/L
same,Treatment 1: Rhamnolipid Only Cr,[3]; molar ratio 5 to 1,0.121 ± 0.009 mmol/L
same,Treatment 2: Rhamnolipid and Filtration Cf,[3]; molar ratio 5 to 1,0.001 ± 0.002 mmol/L
same,Treatment 3: Rhamnolipid and Centrifugation Cc,[3]; molar ratio 5 to 1,0.088 ± 0.003 mmol/L
same,Treatment 1: Rhamnolipid Only Cr,[3]; molar ratio 10 to 1,0.331 ± 0.024 mmol/L
same,Treatment 2: Rhamnolipid and Filtration Cf,[3]; molar ratio 10 to 1,0.004 ± 0.001 mmol/L
same,Treatment 3: Rhamnolipid and Centrifugation Cc,[3]; molar ratio 10 to 1,0.051 ± 0.010 mmol/L
same,Treatment 1: Rhamnolipid Only Cr,[3]; molar ratio rhamnolipid:lanthanum 2 to 1,0.249 ± 0.009 mmol/L
same,Treatment 1: Rhamnolipid Only (Rr) efficiency of removal,[3]; molar ratio 2 to 1,(16.5%)
same,Treatment 2: Rhamnolipid and Filtration (Rf) efficiency of removal,[3]; molar ratio 2 to 1,(61.1%)
same,Treatment 3: Rhamnolipid and Centrifugation (Rc) efficiency of removal,[3]; molar ratio 2 to 1,(23.4%)
same,Treatment 1: Rhamnolipid Only (Rr) efficiency of removal,[3]; molar ratio 5 to 1,(59.4%)
same,Treatment 2: Rhamnolipid and Filtration (Rf) efficiency of removal,[3]; molar ratio 5 to 1,(99.5%)
same,Treatment 3: Rhamnolipid and Centrifugation (Rc) efficiency of removal,[3]; molar ratio 5 to 1,(70.6%)
same,Treatment 2: Rhamnolipid and Filtration (Rf) efficiency of removal,[3]; molar ratio 10 to 1,(98.8%)
same,Treatment 3: Rhamnolipid and Centrifugation (Rc) efficiency of removal,[3]; molar ratio 10 to 1,(82.8%)
